Measurements as given in US20230218563A1, “METHODS FOR TREATING OR PREVENTING CHRONIC KIDNEY DISEASE” (Arthrosi Therapeutics, Inc., priority 2020, published 2023).

Test system: serum uric acid (sUA)
Experiment: Phase 1 single dose study, pharmacodynamics (serum uric acid) in healthy adult males
Type: in vivo, human
Experimental: The dose groups included Cohort 1 (15 mg or placebo, fasted, oral suspension), Cohort 2 (50 mg or placebo, fasted, suspension), Cohort 3 (100 mg or placebo, fasted, oral suspension), Cohort 4 (150 mg or placebo, fasted, oral suspension), Cohort 6 (50 mg or placebo, fed, oral suspension), and Cohort 7 (50 mg or placebo, fasted, oral capsule). […] An additional 8 subjects received placebo.
Decrease in sUA appeared to reach a plateau at 100 mg or lower.

[1] = 15 mg single oral, fasted, 12 h
[2] = 15 mg single oral, fasted, 30 h
[3] = 15 mg single oral, fasted, 36 h
[4] = 15 mg single oral, fasted, 48 h
[5] = 15 mg single oral, fasted, 54 h
[6] = 15 mg single oral, fasted, 60 h
[7] = 15 mg single oral, fasted, 72 h
[8] = 15 mg single oral, fasted, 96 h
[9] = 15 mg single oral, fasted, 120 h
[10] = 50 mg single oral, fasted, Capsule, 6 h
[11] = 50 mg single oral, fasted, Capsule, 12 h
[12] = 50 mg single oral, fasted, Capsule, 24 h
[13] = 50 mg single oral, fasted, Capsule, 30 h
[14] = 50 mg single oral, fasted, Capsule, 36 h
[15] = 50 mg single oral, fasted, Capsule, 48 h
[16] = 50 mg single oral, fasted, Capsule, 54 h
[17] = 50 mg single oral, fasted, Capsule, 60 h
[18] = 50 mg single oral, fasted, Capsule, 72 h
[19] = 50 mg single oral, fasted, Capsule, 96 h
[20] = 50 mg single oral, fasted, Capsule, 120 h
[21] = 50 mg single oral, fasted, 12 h
[22] = 50 mg single oral, fasted, 24 h
[23] = 50 mg single oral, fasted, 30 h
[24] = 50 mg single oral, fasted, 36 h
[25] = 50 mg single oral, fasted, 48 h
[26] = 50 mg single oral, fasted, 54 h
[27] = 50 mg single oral, fasted, 60 h
[28] = 50 mg single oral, fasted, 72 h
[29] = 50 mg single oral, fasted, 96 h
[30] = 50 mg single oral, fasted, 120 h
[31] = 100 mg single oral, fasted, 6 h
[32] = 100 mg single oral, fasted, 12 h
[33] = 100 mg single oral, fasted, 24 h
[34] = 100 mg single oral, fasted, 30 h
[35] = 100 mg single oral, fasted, 36 h
[36] = 100 mg single oral, fasted, 48 h
[37] = 100 mg single oral, fasted, 54 h
[38] = 100 mg single oral, fasted, 60 h
[39] = 100 mg single oral, fasted, 72 h
[40] = 100 mg single oral, fasted, 96 h
[41] = 100 mg single oral, fasted, 120 h
[42] = 150 mg single oral, fasted, 6 h
[43] = 150 mg single oral, fasted, 12 h
[44] = 150 mg single oral, fasted, 24 h
[45] = 150 mg single oral, fasted, 30 h
[46] = 150 mg single oral, fasted, 36 h
[47] = 150 mg single oral, fasted, 48 h
[48] = 150 mg single oral, fasted, 54 h
[49] = 150 mg single oral, fasted, 60 h
[50] = 150 mg single oral, fasted, 72 h
[51] = 150 mg single oral, fasted, 96 h
[52] = 150 mg single oral, fasted, 120 h
[53] = single oral dose, 50 mg or higher, fasted

[2H]c1c([2H])c([2H])c2c(C(=O)c3cc(Br)c(O)c(Br)c3)c(C(C)O)oc2c1[2H] (racemic) [Compound 1, (3,5-dibromo-4-hydroxyphenyl)(2-(1-hydroxyethyl)benzofuran-3-yl-4,5,6,7-d4)methanone]
Percent change in serum uric acid, mean, time-matched (Day-1) baseline (15 mg single oral, fasted, 6 h): 2.7% | Serum uric acid, mean (15 mg single oral, fasted, 6 h): 5.4 mg/dL | Percent change in serum uric acid, mean, time-matched (Day-1) baseline [1]: 8.7% | Serum uric acid, mean [1]: 5.1 mg/dL | Serum uric acid, mean (15 mg single oral, fasted, 24 h): 5.1 mg/dL | Percent change in serum uric acid, mean, time-matched (Day-1) baseline [2]: 0.7% | Serum uric acid, mean [2]: 5.2 mg/dL | Percent change in serum uric acid, mean, time-matched (Day-1) baseline [3]: −1.4% | Serum uric acid, mean [3]: 4.6 mg/dL | Percent change in serum uric acid, mean, time-matched (Day-1) baseline [4]: −4.4% | Serum uric acid, mean [4]: 5.2 mg/dL | Percent change in serum uric acid, mean, time-matched (Day-1) baseline [5]: −1.5% | Serum uric acid, mean [5]: 5.1 mg/dL | Percent change in serum uric acid, mean, time-matched (Day-1) baseline [6]: 10.0% | Serum uric acid, mean [6]: 5.2 mg/dL | Percent change in serum uric acid, mean, time-matched (Day-1) baseline [7]: 3.6% | Serum uric acid, mean [7]: 5.6 mg/dL | Percent change in serum uric acid, mean, time-matched (Day-1) baseline [8]: 7.8% | Serum uric acid, mean [8]: 5.8 mg/dL | Percent change in serum uric acid, mean, time-matched (Day-1) baseline [9]: 13.0% | Serum uric acid, mean [9]: 6.1 mg/dL | Percent change in serum uric acid, mean, time-matched (Day-1) baseline [10]: −26.9% | Serum uric acid, mean [10]: 4.0 mg/dL | Percent change in serum uric acid, mean, time-matched (Day-1) baseline [11]: −37.5% | Serum uric acid, mean [11]: 3.4 mg/dL | Percent change in serum uric acid, mean, time-matched (Day-1) baseline [12]: −38.3% | Serum uric acid, mean [12]: 3.7 mg/dL | Percent change in serum uric acid, mean, time-matched (Day-1) baseline [13]: −36.9% | Serum uric acid, mean [13]: 3.4 mg/dL | Percent change in serum uric acid, mean, time-matched (Day-1) baseline [14]: −34.1% | Serum uric acid, mean [14]: 3.6 mg/dL | Percent change in serum uric acid, mean, time-matched (Day-1) baseline [15]: −32.4% | Serum uric acid, mean [15]: 4.1 mg/dL | Percent change in serum uric acid, mean, time-matched (Day-1) baseline [16]: −28.1% | Serum uric acid, mean [16]: 3.9 mg/dL | Percent change in serum uric acid, mean, time-matched (Day-1) baseline [17]: −21.0% | Serum uric acid, mean [17]: 4.3 mg/dL | Percent change in serum uric acid, mean, time-matched (Day-1) baseline [18]: −17.8% | Serum uric acid, mean [18]: 4.9 mg/dL | Percent change in serum uric acid, mean, time-matched (Day-1) baseline [19]: −11.2% | Serum uric acid, mean [19]: 5.3 mg/dL | Percent change in serum uric acid, mean, time-matched (Day-1) baseline [20]: −12.5% | Serum uric acid, mean [20]: 5.2 mg/dL | Percent change in serum uric acid, mean, time-matched (Day-1) baseline (50 mg single oral, fasted, 6 h): −23.8% | Serum uric acid, mean (50 mg single oral, fasted, 6 h): 4.6 mg/dL | Percent change in serum uric acid, mean, time-matched (Day-1) baseline [21]: −33.6% | Serum uric acid, mean [21]: 3.9 mg/dL | Percent change in serum uric acid, mean, time-matched (Day-1) baseline [22]: −42.4% | Serum uric acid, mean [22]: 3.9 mg/dL | Percent change in serum uric acid, mean, time-matched (Day-1) baseline [23]: −33.5% | Serum uric acid, mean [23]: 4.1 mg/dL | Percent change in serum uric acid, mean, time-matched (Day-1) baseline [24]: −33.9% | Serum uric acid, mean [24]: 3.9 mg/dL | Percent change in serum uric acid, mean, time-matched (Day-1) baseline [25]: −35.8% | Serum uric acid, mean [25]: 4.3 mg/dL | Percent change in serum uric acid, mean, time-matched (Day-1) baseline [26]: −32.1% | Serum uric acid, mean [26]: 4.2 mg/dL | Percent change in serum uric acid, mean, time-matched (Day-1) baseline [27]: −24.2% | Serum uric acid, mean [27]: 4.5 mg/dL | Percent change in serum uric acid, mean, time-matched (Day-1) baseline [28]: −26.1% | Serum uric acid, mean [28]: 5.0 mg/dL | Percent change in serum uric acid, mean, time-matched (Day-1) baseline [29]: −9.6% | Serum uric acid, mean [29]: 6.0 mg/dL | Percent change in serum uric acid, mean, time-matched (Day-1) baseline [30]: −4.6% | Serum uric acid, mean [30]: 6.4 mg/dL | Percent change in serum uric acid, mean, time-matched (Day-1) baseline (50 mg single oral, fed, 6 h): −20.3% | Serum uric acid, mean (50 mg single oral, fed, 6 h): 4.8 mg/dL | Percent change in serum uric acid, mean, time-matched (Day-1) baseline (50 mg single oral, fed, 12 h): −37.7% | Serum uric acid, mean (50 mg single oral, fed, 12 h): 3.9 mg/dL | Percent change in serum uric acid, mean, time-matched (Day-1) baseline (50 mg single oral, fed, 24 h): −41.9% | Serum uric acid, mean (50 mg single oral, fed, 24 h): 3.8 mg/dL | Percent change in serum uric acid, mean, time-matched (Day-1) baseline (50 mg single oral, fed, 30 h): −40.1% | Serum uric acid, mean (50 mg single oral, fed, 30 h): 3.6 mg/dL | Percent change in serum uric acid, mean, time-matched (Day-1) baseline (50 mg single oral, fed, 36 h): −37.4% | Serum uric acid, mean (50 mg single oral, fed, 36 h): 3.9 mg/dL | Percent change in serum uric acid, mean, time-matched (Day-1) baseline (50 mg single oral, fed, 48 h): −32.6% | Serum uric acid, mean (50 mg single oral, fed, 48 h): 4.4 mg/dL | Percent change in serum uric acid, mean, time-matched (Day-1) baseline (50 mg single oral, fed, 54 h): −29.8% | Serum uric acid, mean (50 mg single oral, fed, 54 h): 4.2 mg/dL | Percent change in serum uric acid, mean, time-matched (Day-1) baseline (50 mg single oral, fed, 60 h): −31.3% | Serum uric acid, mean (50 mg single oral, fed, 60 h): 4.3 mg/dL | Percent change in serum uric acid, mean, time-matched (Day-1) baseline (50 mg single oral, fed, 72 h): −23.3% | Serum uric acid, mean (50 mg single oral, fed, 72 h): 5.0 mg/dL | Percent change in serum uric acid, mean, time-matched (Day-1) baseline (50 mg single oral, fed, 96 h): −10.9% | Serum uric acid, mean (50 mg single oral, fed, 96 h): 5.8 mg/dL | Percent change in serum uric acid, mean, time-matched (Day-1) baseline (50 mg single oral, fed, 120 h): −5.8% | Serum uric acid, mean (50 mg single oral, fed, 120 h): 6.1 mg/dL | sUA reduction with versus without food (50 mg single oral, throughout 120 hours post-dose): no difference observed | Percent change in serum uric acid, mean, time-matched (Day-1) baseline [31]: −31.6% | Serum uric acid, mean [31]: 3.5 mg/dL | Percent change in serum uric acid, mean, time-matched (Day-1) baseline [32]: −48.2% | Serum uric acid, mean [32]: 2.6 mg/dL | Percent change in serum uric acid, mean, time-matched (Day-1) baseline [33]: −58.8% | Serum uric acid, mean [33]: 2.3 mg/dL | Percent change in serum uric acid, mean, time-matched (Day-1) baseline [34]: −58.2% | Serum uric acid, mean [34]: 2.2 mg/dL | Percent change in serum uric acid, mean, time-matched (Day-1) baseline [35]: −52.9% | Serum uric acid, mean [35]: 2.4 mg/dL | Percent change in serum uric acid, mean, time-matched (Day-1) baseline [36]: −47.4% | Serum uric acid, mean [36]: 2.9 mg/dL | Percent change in serum uric acid, mean, time-matched (Day-1) baseline [37]: −45.7% | Serum uric acid, mean [37]: 2.8 mg/dL | Percent change in serum uric acid, mean, time-matched (Day-1) baseline [38]: −37.5% | Serum uric acid, mean [38]: 3.1 mg/dL | Percent change in serum uric acid, mean, time-matched (Day-1) baseline [39]: −38.7% | Serum uric acid, mean [39]: 3.4 mg/dL | Percent change in serum uric acid, mean, time-matched (Day-1) baseline [40]: −17.3% | Serum uric acid, mean [40]: 4.6 mg/dL | Percent change in serum uric acid, mean, time-matched (Day-1) baseline [41]: −3.8% | Serum uric acid, mean [41]: 5.4 mg/dL | Percent change in serum uric acid, mean, time-matched (Day-1) baseline [42]: −36.2% | Serum uric acid, mean [42]: 3.7 mg/dL | Percent change in serum uric acid, mean, time-matched (Day-1) baseline [43]: −50.4% | Serum uric acid, mean [43]: 2.6 mg/dL | Percent change in serum uric acid, mean, time-matched (Day-1) baseline [44]: −59.3% | Serum uric acid, mean [44]: 2.5 mg/dL | Percent change in serum uric acid, mean, time-matched (Day-1) baseline [45]: −59.1% | Serum uric acid, mean [45]: 2.3 mg/dL | Percent change in serum uric acid, mean, time-matched (Day-1) baseline [46]: −55.6% | Serum uric acid, mean [46]: 2.4 mg/dL | Percent change in serum uric acid, mean, time-matched (Day-1) baseline [47]: −53.8% | Serum uric acid, mean [47]: 2.8 mg/dL | Percent change in serum uric acid, mean, time-matched (Day-1) baseline [48]: −49.5% | Serum uric acid, mean [48]: 2.9 mg/dL | Percent change in serum uric acid, mean, time-matched (Day-1) baseline [49]: −40.8% | Serum uric acid, mean [49]: 3.1 mg/dL | Percent change in serum uric acid, mean, time-matched (Day-1) baseline [50]: −37.1% | Serum uric acid, mean [50]: 3.8 mg/dL | Percent change in serum uric acid, mean, time-matched (Day-1) baseline [51]: −25.9% | Serum uric acid, mean [51]: 4.5 mg/dL | Percent change in serum uric acid, mean, time-matched (Day-1) baseline [52]: −15.4% | Serum uric acid, mean [52]: 5.2 mg/dL | onset of sUA lowering effect [53]: 6 hours post-dose | time of sUA nadir [53]: 24-36 hours post-dose | time sUA remained lower than baseline levels [53]: up to 72 hours post-dose | dose at which decrease in sUA appeared to reach a plateau (single oral dose, fasted): ≤ 100 mg
